Experimental data reported in patent publication US20210169113A1, “COMPOSITION FOR IMPROVING INTESTINAL FLORA” (Hosoda SHC Co., Ltd., priority 2018, published 2021).
Read-outs that look alike come from different tables or passages of the source.

What was measured:
[1] = mouse, in vivo
Experimental: (§1) Seven mice were fed ad libitum with the test diet in which 0.5% of gnemonoside A separated and purified in Example 2 was included in the high-fat diet in an amount of 5 g/mouse/day for 14 consecutive weeks, and then 10 mg of their excrement was collected. The excrement thus collected and 10 mg of the excrement collected in Test example 4 were each added with methanol (acetonitrile aqueous solution), suspended by an ultrasonic treatment, and then filtered. The filtrate was washed with hexane and passed through an ODS cartridge, and 20 μL of the elute was applied to an HPLC apparatus.

[2] = HPLC of excrement for gnetin C and glycosides (Test Example 7); conditions: 14 weeks
Experimental: as §1

Compound | Peaks in HPLC chromatogram of the excrement [1] | Fate in the intestinal tract ([2]; 0.5% in high-fat diet) | Peaks in HPLC chromatogram of the excrement ([2]; 0.5% of substance in high-fat diet, mice excrement)
Oc1ccc(/C=C/c2cc(O)c3c(c2)OC(c2ccc(O)cc2)C3c2cc(O)cc(O)c2)cc1 (stereo not drawn) [gnetin C] | peaks of gnetin C and monoglucuronic acid conjugate of gnetin C |  | 
gnemonoside A |  | hydrolyzed and changed to gnetin C in the intestinal tract | peaks of gnetin C and the monoglucuronide, but not a peak of gnemonoside A, C, or D
